Drawing on patent US11584737B2, “Heterocyclic compound” (TAKEDA PHARMACEUTICAL COMPANY LIMITED, priority 2018, dated 2023), this text covers inhibition for nine compounds.

The test system of one assay is A2780 cells. Description: In vitro proliferation suppression test (CellTiter-Glo). The format is cell-based, human. The following applies: Homo sapiens, 72 h, A2780 cell proliferation inhibitory rate at 1 μM test compound, three days. How it is done:
Experimental Example 4: In Vitro Proliferation Suppression Test
The proliferation suppressive activity of compound in A2780 cells was evaluated by the following method.
A2780 cells were seeded in a 384-well white plate at a cell density of 1,000 cells/40 μL/well or a 96-well white plate at a cell density of 1,000 cells/90 μL/well using an assay medium (RPMI1640 medium containing 10% fetal bovine serum (FUJIFILM Wako Pure Chemical Corporation)) and incubated at 37° C. in 5% CO2.
The next day, a test compound dissolved in dimethyl sulfoxide (DMSO) was diluted with an assay medium, the obtained compound solution was added by 40 μL/well or 10 μL/well to each well of the plate containing A2780 cells and the mixture was incubated (test compound addition group). In addition, a similar reaction was performed without adding the test compound (test compound non-addition group).
Three days later, 80 μL or 100 μL of CellTiter-Glo reagent (Promega) was added, and the mixture was stirred for 10 min. Thereafter, the luminescence of each well was measured by ARVO-MX multilabel counter (Perkin Elmer Inc.).
The proliferation inhibitory rate (%) of each test compound against A2780 cells was calculated by the following calculation formula. Proliferation inhibitory rate (%)=(1−luminescence of test compound addition group÷luminescence of test compound non-addition group)×100
The A2780 cell proliferation inhibitory rate (%) of 1 μM test compound is shown below.

Assay [1] addresses T1, CDK12/CycK complex (Homo sapiens, UniProt Q9NYV4). Description: Measurement of CDK12 inhibitory activity by binding assay (TR-FRET, 66 nM BODIPY-FL-labeled AT-7519). The following applies: inhibitory rate against CDK12 at 1 μM test compound, 66 nM BODIPY-FL-labeled AT-7519, 2 nM CDK12/CycK. How it is done: Experimental Example 1: CDK12 Binding Assay
(3) Measurement of CDK12 Inhibitory Activity by Binding Assay
His-tagged CDK12/CycK complex was added to a binding assay buffer supplemented with BODIPY-FL labeled AT-7519, terbium-labeled streptavidin and biotin-labeled anti-histidine antibody, and the mixture was stood for not less than 60 min at room temperature. This solution was added to an assay plate containing a test compound dispensed therein, and the mixture was left standing for 120 min at room temperature. The final concentration of CDK12/CycK complex, BODIPY-FL-labeled AT-7519, terbium-labeled streptavidin and biotin-labeled anti-histidine antibody was set to 2 nM, 66 nM, 0.2 nM, and 0.4 nM, respectively. The fluorescence intensity derived from terbium and BODIPY-FL was measured using Envision. The signal value of each well was determined using the TR-FRET ratio calculated by the following formula. TR-FRET ratio=(fluorescence value of BODIPY-FL)÷(fluorescence value of terbium)
The inhibitory rate (%) of the test compound against CDK12 was calculated by the following formula. Inhibitory rate (%)=(1−(TR-FRET ratio of test compound−blank)÷(control−blank))×100
The TR-FRET ratio of the CDK12 enzyme reaction mixture under compound non-addition conditions is indicated as control, and the TR-FRET ratio under 3 μM AT-7519 addition conditions is indicated as blank.
The inhibitory rate of the test compound against CDK12 at […] is shown below.
Background: Time-resolved FRET reads energy transfer from a long-lived donor to a nearby acceptor.

The test system of assay [2] is A2780 intracellular CTD pSer2. Description: CTD pSer2 measurement using human ovarian cancer cell A2780 and In-Cell Western method. Type of assay: cell-based. The following applies: inhibitory rate against A2780 intracellular CTD pSer2 at 1 μM test compound, 4 hr. The method, then: Experimental Example 3: CTD pSer2 Measurement Using Human Ovarian Cancer Cell A2780 and In-Cell Western Method
A2780 cells (ATCC) were seeded in a 96 well plate at 1.8×10^4 cells/well, and the cells were cultured overnight in a cell culture medium RPMI1640 (FUJIFILM Wako Pure Chemical Corporation) containing 10% FBS (fetal bovine serum) and 1% penicillin/streptomycin. A test compound dissolved in a cell medium was added, and the mixture was stood for 4 hr in a CO2 incubator (37° C.). The cells were fixed with ALTFiX (Falma) for 30 min, and washed 3 times with a washing buffer (20 mM Tris-HCl (pH 7.5), 500 mM NaCl, 0.1% Tween20). 0.1% Triton-X-100 diluted with PBS(−) was added and the mixture was incubated at room temperature for 15 min. Thereafter, a blocking buffer (LI-COR) was added, and the mixture was incubated at room temperature for 1 hr. An anti-CTD pS2 antibody (Abcam) suspended in an antibody diluent (blocking buffer: PBS(−)-diluted 0.1% Tween20=1:1) was added, and the mixture was incubated at room temperature for 1 hr. The mixture was […] with a washing buffer, IRDye800CW-labeled anti-goat antibody (LI-COR) was added, and the mixture was incubated at room temperature for 1 hr. The mixture was washed 3 times with a washing buffer, and the fluorescence wavelength at 800 nm was measured by Aerius (LI-COR).
The inhibitory rate (%) of the test compound against A2780 intracellular CTD pSer2 was calculated by the following formula. Inhibitory rate (%)=(1−(count of test compound−blank)÷(control−blank))×100
The count of the A2780 cell under compound non-addition conditions is indicated as control, and the count under compound non-addition and primary antibody non-addition conditions is indicated as blank.
The results measured by the above-mentioned method (inhibitory rate of the signal value at 1 μM test compound relative to control) are shown below.

The next assay has as its target CDK12/CycK enzyme (Homo sapiens, UniProt Q9NYV4). Description: Measurement of CDK12/CycK inhibitory activity (ULight-4E-BP1 peptide phosphorylation, LANCE). The format is biochemical. To be noted: inhibitory rate against CDK12/CycK at 1 μM test compound, ATP 10 μM or 500 μM. The method, then: Experimental Example 2: Measurement of CDK12/CycK Inhibitory Activity
A test compound dissolved in DMSO was added to a reaction solution (50 mM HEPES (pH 7.5), 10 mM MgCl2, 1 mM DTT, 0.01% Tween 20, 0.01% BSA) containing CDK12/CycK enzyme and ULight-labeled eIF4E-binding protein 1 (4E-BP1) (Thr37/Thr46) peptide (PerkinElmer), and the mixture was reacted at room temperature for 60 min. […] was added to give an ATP solution with a final concentration of 10 μM or 500 μM to start the enzyme reaction, and the mixture was reacted at room temperature for 60 min. A LANCE Detection buffer (PerkinElmer) containing europium-labeled anti-phosphorylation 4E-BP1 (Thr37/Thr46) antibody (PerkinElmer) and EDTA (final concentration 10 mM) was added to discontinue the reaction. After standing for 60 min, time decomposition fluorescence value (excitation 320 nm, emission 615 nm, 665 nm) was measured by Envision (PerkinElmer). The inhibitory rate (%) of the test compound against CDK12/CyclinK was calculated by the following formula. Inhibitory rate (%)=(1−(count of test compound−blank)÷(control−blank))×100
The count of the CDK12 enzyme reaction mixture under compound non-addition conditions is indicated as control, and the count under compound non-addition and CDK12/CycK enzyme non-addition conditions is indicated as blank.
The results measured by the above-mentioned method (inhibitory rate (%) of the signal value at 1 μM test compound relative to control is shown below.

Assay [3] addresses T1, CDK12/CycK complex. Description: Measurement of CDK12 inhibitory activity by binding assay (BODIPY-FL labeled AT-7519 high concentration conditions, 1320 nM). To be noted: inhibitory rate against CDK12 at 1 μM test compound, 1320 nM BODIPY-FL-labeled AT-7519, 8 nM CDK12/CycK. An outline of the steps:
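His-tagged CDK12/CycK (8 nM) was incubated with test compound, BODIPY-FL-AT-7519 tracer (1320 nM), Tb-streptavidin (0.2 nM) and biotin-anti-His antibody (0.4 nM) for 120 min at room temperature. TR-FRET ratio (BODIPY-FL/Tb) gave % inhibition versus no-compound control and 30 μM AT-7519 blank; compounds tested at 1 μM.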

T1 sequence (Q9NYV4 whole entry, species assumed): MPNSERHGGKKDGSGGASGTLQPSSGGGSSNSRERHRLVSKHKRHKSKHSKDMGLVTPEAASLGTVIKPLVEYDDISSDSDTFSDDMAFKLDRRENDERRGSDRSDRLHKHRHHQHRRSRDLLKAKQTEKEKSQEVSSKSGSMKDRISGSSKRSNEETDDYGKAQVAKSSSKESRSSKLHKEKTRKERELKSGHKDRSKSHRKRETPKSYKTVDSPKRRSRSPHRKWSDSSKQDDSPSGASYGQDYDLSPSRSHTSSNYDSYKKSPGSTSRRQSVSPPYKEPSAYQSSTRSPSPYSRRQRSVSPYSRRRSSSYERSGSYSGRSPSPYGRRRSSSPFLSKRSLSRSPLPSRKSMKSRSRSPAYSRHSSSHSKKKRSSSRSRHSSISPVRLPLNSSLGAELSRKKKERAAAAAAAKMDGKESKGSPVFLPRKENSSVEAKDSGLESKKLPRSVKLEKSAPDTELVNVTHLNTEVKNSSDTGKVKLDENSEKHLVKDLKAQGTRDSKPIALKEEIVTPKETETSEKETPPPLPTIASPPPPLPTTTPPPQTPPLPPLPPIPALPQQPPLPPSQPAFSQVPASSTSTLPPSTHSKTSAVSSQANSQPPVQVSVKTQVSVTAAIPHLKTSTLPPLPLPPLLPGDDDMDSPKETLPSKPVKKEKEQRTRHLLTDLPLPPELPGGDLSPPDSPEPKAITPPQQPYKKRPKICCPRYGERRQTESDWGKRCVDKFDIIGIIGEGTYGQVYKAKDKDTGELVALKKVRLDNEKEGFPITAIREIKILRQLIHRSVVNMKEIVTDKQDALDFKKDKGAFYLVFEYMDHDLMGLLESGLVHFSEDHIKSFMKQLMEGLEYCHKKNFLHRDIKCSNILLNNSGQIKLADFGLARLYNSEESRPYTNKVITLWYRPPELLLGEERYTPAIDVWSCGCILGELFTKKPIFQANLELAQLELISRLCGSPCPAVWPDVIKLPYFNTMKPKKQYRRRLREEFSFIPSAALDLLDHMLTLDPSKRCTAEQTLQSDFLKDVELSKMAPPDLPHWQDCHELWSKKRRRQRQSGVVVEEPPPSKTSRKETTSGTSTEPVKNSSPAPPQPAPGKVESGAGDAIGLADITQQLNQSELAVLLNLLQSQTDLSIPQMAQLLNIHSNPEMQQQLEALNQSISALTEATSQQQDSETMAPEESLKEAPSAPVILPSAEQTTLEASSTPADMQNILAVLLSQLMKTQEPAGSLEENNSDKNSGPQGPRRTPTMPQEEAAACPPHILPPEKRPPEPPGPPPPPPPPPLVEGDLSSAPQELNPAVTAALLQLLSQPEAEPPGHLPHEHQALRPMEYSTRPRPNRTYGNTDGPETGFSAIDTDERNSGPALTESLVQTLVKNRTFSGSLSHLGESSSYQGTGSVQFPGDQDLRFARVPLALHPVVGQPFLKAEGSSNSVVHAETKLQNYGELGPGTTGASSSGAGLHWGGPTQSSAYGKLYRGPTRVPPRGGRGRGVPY
T1 sequence (O75909 whole entry partner, species assumed): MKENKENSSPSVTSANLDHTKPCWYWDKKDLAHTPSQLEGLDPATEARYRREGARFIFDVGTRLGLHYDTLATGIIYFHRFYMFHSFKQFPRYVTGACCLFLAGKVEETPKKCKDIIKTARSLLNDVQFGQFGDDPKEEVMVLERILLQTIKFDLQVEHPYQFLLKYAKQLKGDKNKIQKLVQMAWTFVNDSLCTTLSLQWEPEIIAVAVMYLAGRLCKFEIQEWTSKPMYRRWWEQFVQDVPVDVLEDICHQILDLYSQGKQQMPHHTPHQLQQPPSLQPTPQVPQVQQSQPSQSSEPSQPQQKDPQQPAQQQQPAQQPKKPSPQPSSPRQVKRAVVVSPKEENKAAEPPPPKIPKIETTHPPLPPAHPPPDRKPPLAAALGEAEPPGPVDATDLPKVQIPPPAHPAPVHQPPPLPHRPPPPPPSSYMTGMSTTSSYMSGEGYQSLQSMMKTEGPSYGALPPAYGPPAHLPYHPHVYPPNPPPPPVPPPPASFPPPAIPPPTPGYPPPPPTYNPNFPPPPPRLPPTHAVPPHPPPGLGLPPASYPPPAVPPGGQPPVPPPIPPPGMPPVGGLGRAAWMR
CDK12/CycK enzyme, sequence (Q9NYV4 whole entry, species assumed): as the sequence (Q9NYV4 whole entry, species assumed) above
CDK12/CycK enzyme, sequence (O75909 whole entry partner, species assumed): as the sequence (O75909 whole entry partner, species assumed) above

One may read the inhibition as the drop in the measured response relative to a control, in per cent. Take `Cn1cc(-c2ccc(N(C(=O)NCc3ccccc3)[C@H]3CC[C@H](Nc4ncc(C#N)c(NC5COC5)n4)CC3)nc2)cn1` [Example 319, 3-benzyl-1-(trans-4-((5-cyano-4-(oxetan-3-ylamino)pyrimidin-2-yl)amino)cyclohexyl)-1-(5-(1-methyl-1H-pyrazol-4-yl)pyridin-2-yl)urea]: the inhibition at 1 µM with A2780 cells turned out to be 97%; at CDK12/CycK complex [1], 94%; in assay [2], 69%; against CDK12/CycK enzyme it was 98%.
On the same counts, the results for `Cn1cc(-c2ccc(N(C(=O)NCc3ccccc3)[C@H]3CC[C@H](Nc4ncc(C#N)c(-c5cncc(S(C)(=O)=O)c5)n4)CC3)nc2)cn1` [Example 440, 3-benzyl-1-(trans-4-((5-cyano-4-(5-(methylsulfonyl)pyridin-3-yl)pyrimidin-2-yl)amino)cyclohexyl)-1-(5-(1-methyl-1H-pyrazol-4-yl)pyridin-2-yl) urea] are 98%, 99%, 54% and 101%.
Turning to `Cc1cc(-c2nc(N[C@H]3CC[C@H](N(C(=O)NCc4ccccc4)c4ccc(-c5cnn(C)c5)cn4)CC3)ncc2C#N)[nH]n1` [Example 469, 3-benzyl-1-(trans-4-((5-cyano-4-(3-methyl-1H-pyrazol-5-yl)pyrimidin-2-yl)amino)cyclohexyl)-1-(5-(1-methyl-1H-pyrazol-4-yl)pyridin-2-yl) urea], the inhibition at 1 µM is 97% in the assay on A2780 cells, 94% at CDK12/CycK complex [1], 62% in assay [2] and 103% on CDK12/CycK enzyme.
Consider `Cn1cc(-c2ccc(N(C(=O)NCc3ccccc3)[C@H]3CC[C@H](Nc4ncc(C#N)c(OC5COC5)n4)CC3)nc2)cn1` [Example 485, 3-benzyl-1-(trans-4-((5-cyano-4-(oxetan-3-yloxy)pyrimidin-2-yl)amino)cyclohexyl)-1-(5-(1-methyl-1H-pyrazol-4-yl)pyridin-2-yl)urea], for which the inhibition at 1 µM came to 97% in the assay with A2780 cells, 102% at CDK12/CycK complex [1], 63% in assay [2] and 103% on CDK12/CycK enzyme.
As for `Cn1cc(-c2ccc(N(C(=O)NCc3ccccc3)[C@H]3CC[C@H](Nc4ncc(C#N)c(NC5COC5)n4)CC3)cc2)cn1` [Example 527, 3-benzyl-1-(trans-4-((5-cyano-4-(oxetan-3-ylamino)pyrimidin-2-yl)amino)cyclohexyl)-1-(4-(1-methyl-1H-pyrazol-4-yl)phenyl)urea], the inhibition at 1 µM with A2780 cells was 97%; at CDK12/CycK complex [1] it was 102%; in assay [2], 70%; against CDK12/CycK enzyme it was 99%.
As for `Cn1ccc(-c2ccc(N(C(=O)NCc3ccccc3)[C@H]3CC[C@H](Nc4ncc(C#N)c(NC5COC5)n4)CC3)cc2)cc1=O` [Example 530, 3-benzyl-1-(trans-4-((5-cyano-4-(oxetan-3-ylamino)pyrimidin-2-yl)amino)cyclohexyl)-1-(4-(1-methyl-2-oxo-1,2-dihydropyridin-4-yl)phenyl) urea], the inhibition at 1 µM stood at 97% with A2780 cells, 100% on CDK12/CycK complex [1], 64% in assay [2] and 104% against CDK12/CycK enzyme.
On to `Cn1cc(-c2ccc(N(C(=O)NCc3ccccc3)[C@H]3CC[C@H](Nc4ncc(C#N)c(-c5[nH]ncc5Cl)n4)CC3)nc2)cn1` [Example 536, 3-benzyl-1-(trans-4-((4-(4-chloro-1H-pyrazol-5-yl)-5-cyanopyrimidin-2-yl)amino)cyclohexyl)-1-(5-(1-methyl-1H-pyrazol-4-yl)pyridin-2-yl)urea], for which the inhibition at 1 µM in the assay with A2780 cells came out at 91%; on CDK12/CycK complex [1], 96%; in assay [2], 82%; on CDK12/CycK enzyme, 95%.
Taken in the same sequence, the figures for `Cn1cc(-c2cnc(N(C(=O)NCc3ccccc3)[C@H]3CC[C@H](Nc4ncc(C#N)c(NC5COC5)n4)CC3)cn2)cn1` [Example 539, 3-benzyl-1-(trans-4-((5-cyano-4-(oxetan-3-ylamino)pyrimidin-2-yl)amino)cyclohexyl)-1-(5-(1-methyl-1H-pyrazol-4-yl)pyrazin-2-yl)urea] were 96%, 99%, 71% and 109%.
For `CCCC(=O)N(c1ccc(-c2cnc(OC)nc2)cn1)[C@H]1CC[C@H](Nc2ncc(C(F)(F)F)c(-c3cncc(S(C)(=O)=O)c3)n2)CC1` [Example 858, N-(trans-4-((4-(5-(methanesulfonyl)pyridin-3-yl)-5-(trifluoromethyl)pyrimidin-2-yl)amino)cyclohexyl)-N-(5-(2-methoxypyrimidin-5-yl)pyridin-2-yl)butanamide], the inhibition at 1 µM is 109% on CDK12/CycK complex [3] and 99% in the assay on A2780 cells.
